Literature values in US20050020536A1, “Highly pure fondaparinux sodium composition, process for preparing said composition and pharmaceutical compositions containing it as active principle” (priority 2003, published 2005).

Test system: factor Xa
Details: general statement in the introduction, no method given

## CO[C@H]1O[C@H](COS(=O)(=O)[O-])[C@@H](O[C@@H]2O[C@@H](C(=O)[O-])[C@@H](O[C@H]3O[C@H](COS(=O)(=O)[O-])[C@@H](O[C@@H]4O[C@H](C(=O)[O-])[C@@H](O[C@H]5O[C@H](COS(=O)(=O)[O-])[C@@H](O)[C@H](O)[C@H]5NS(=O)(=O)[O-])[C@H](O)[C@H]4O)[C@H](OS(=O)(=O)[O-])[C@H]3NS(=O)(=O)[O-])[C@H](O)[C@H]2OS(=O)(=O)[O-])[C@H](O)[C@H]1NS(=O)(=O)[O-].[Na+].[Na+].[Na+].[Na+].[Na+].[Na+].[Na+].[Na+].[Na+].[Na+] [Fondaparinux sodium, methyl O-2-deoxy-6-O-sulfo-2-(sulfoamino)-α-D-glucopyranosyl-(1→4)-O-β-D-glucopyranuronosyl-(1→4)-O-2-deoxy-3,6-di-O-sulfo-2-(sulfoamino)-α-D-glucopyranosyl-(1→4)-2-O-sulfo-α-D-glucopyranosyl-(1→4)-O-2-O-sulfo-L-idopyranurosyl-(1→4)-2-deoxy-6-O-sulfo-2-(sulfoamino)-α-D-glucopyranoside, decakissodium salt]
  anti-factor Xa (anti Xa) activity: very powerful
